Laboratory results from paper PMC5207512, “Inhibition of Helicobacter pylori and Its Associated Urease by Palmatine: Investigation on the Potential Mechanism” (PLoS ONE, 2017).
“And” between values parts separate entries of the source, which are not always exact repeats. Equal values may be shown once. Read-outs that look alike come from different tables or passages of the source.

What was measured:
H. pylori urease (HPU) [1] = molecular target: T1, H. pylori urease (HPU) (Helicobacter pylori, UniProt P69996); experiment: biochemical; settings: read-out: Residual urease activity (percent of control), Fig 4A HPU, Pal 0.5 mM, thiols 1.25 mM, replicates
T1 construct: HPU was prepared as previously described; made in house
T1 sequence (P14916 whole entry): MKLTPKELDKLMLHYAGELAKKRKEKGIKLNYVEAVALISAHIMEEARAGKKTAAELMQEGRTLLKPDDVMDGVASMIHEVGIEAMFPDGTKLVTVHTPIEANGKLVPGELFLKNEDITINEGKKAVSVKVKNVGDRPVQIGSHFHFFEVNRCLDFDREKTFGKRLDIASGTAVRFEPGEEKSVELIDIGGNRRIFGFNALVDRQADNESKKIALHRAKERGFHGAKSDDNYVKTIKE
T1 sequence (P69996 whole entry): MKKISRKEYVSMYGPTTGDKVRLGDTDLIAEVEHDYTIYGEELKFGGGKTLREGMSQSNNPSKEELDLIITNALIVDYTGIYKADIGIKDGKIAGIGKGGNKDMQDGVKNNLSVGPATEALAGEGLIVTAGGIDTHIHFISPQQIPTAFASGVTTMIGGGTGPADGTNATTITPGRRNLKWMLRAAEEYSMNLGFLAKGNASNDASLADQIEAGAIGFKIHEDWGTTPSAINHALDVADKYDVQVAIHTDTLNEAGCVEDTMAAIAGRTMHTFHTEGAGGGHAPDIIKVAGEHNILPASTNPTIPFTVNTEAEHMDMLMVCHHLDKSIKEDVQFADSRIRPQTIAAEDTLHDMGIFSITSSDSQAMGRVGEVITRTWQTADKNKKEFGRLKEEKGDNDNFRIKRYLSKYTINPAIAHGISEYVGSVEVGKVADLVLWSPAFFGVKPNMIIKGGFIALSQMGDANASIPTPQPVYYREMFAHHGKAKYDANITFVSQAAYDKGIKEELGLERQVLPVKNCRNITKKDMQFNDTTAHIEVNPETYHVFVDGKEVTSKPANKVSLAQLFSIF
Method: (§1) For the protection with thiols-containing compounds, the mixture consisting of 0.25 mg/mL urease (HPU or JBU), 0.5 mM Pal (for both HPU and JBU) and 1.25 mM thiols (DTT, GSH and L-cys) was incubated for 5, 10, 20, and 40 min at 37°C, respectively. The control sample instead of the protectors contained a proper volume of respective buffer.

jack bean urease (JBU) [2] = molecular target: T2, jack bean urease (JBU) (Canavalia ensiformis, UniProt P07374); experiment: biochemical; settings: read-out: Residual urease activity (percent of control), Fig 4B JBU, Pal 0.5 mM, thiols 1.25 mM, replicates
T2 construct: Urease from jack bean (Canavalia ensiformis, JBU); purchased Sigma-Aldrich (St Louis, MO, USA) type III (catalogue number not given)
T2 sequence (P07374 whole entry, looked up): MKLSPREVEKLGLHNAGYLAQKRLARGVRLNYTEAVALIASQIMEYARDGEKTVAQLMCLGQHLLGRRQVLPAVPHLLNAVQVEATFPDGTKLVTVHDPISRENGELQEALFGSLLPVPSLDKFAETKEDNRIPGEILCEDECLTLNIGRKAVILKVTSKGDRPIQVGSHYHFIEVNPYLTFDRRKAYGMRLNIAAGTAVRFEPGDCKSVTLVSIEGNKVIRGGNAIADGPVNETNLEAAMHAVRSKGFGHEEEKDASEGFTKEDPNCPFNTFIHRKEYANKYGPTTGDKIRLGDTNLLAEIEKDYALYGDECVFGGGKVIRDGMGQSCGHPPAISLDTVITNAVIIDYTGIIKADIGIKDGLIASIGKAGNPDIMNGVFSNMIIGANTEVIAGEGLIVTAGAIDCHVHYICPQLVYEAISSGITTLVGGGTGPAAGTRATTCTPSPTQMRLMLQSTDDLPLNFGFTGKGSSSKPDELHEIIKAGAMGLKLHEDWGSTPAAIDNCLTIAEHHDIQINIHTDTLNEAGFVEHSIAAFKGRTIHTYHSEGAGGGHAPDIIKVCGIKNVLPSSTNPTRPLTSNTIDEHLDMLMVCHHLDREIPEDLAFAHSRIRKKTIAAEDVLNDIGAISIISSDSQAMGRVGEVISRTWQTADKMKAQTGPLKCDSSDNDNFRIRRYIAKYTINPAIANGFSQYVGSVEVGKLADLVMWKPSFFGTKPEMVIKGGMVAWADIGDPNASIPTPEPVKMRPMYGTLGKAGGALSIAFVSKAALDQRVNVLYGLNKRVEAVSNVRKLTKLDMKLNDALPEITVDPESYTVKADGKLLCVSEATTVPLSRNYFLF
Method: as §1

H. pylori urease (HPU) [3] = molecular target: T1, H. pylori urease (HPU); experiment: Inhibition kinetic study (Lineweaver-Burk plots); format: biochemical; settings: for Lineweaver-Burk plot raw value (reciprocal velocity): Fig 3A HPU
Method: Michaelis constant KM and the maximum velocity vmax values were evaluated by means of Lineweaver—Burk plots, using the initial velocities at different urea concentrations ([…]), in the absence or presence of 1.00, 0.50, and 0.25 mM Pal. The concentrations of HPU and JBU were both 0.25 mg/mL in the assays. The values were obtained by applying nonlinear regression to the Michaelis-Menten equation. All experiments were performed in triplicate.

H. pylori urease (HPU) [4] = molecular target: T1, H. pylori urease (HPU); experiment: biochemical; format: biochemical; settings: for activity at 500 µM: read-out: Urease activity, Fig 6A HPU, Pal 0.5 mM, DTT 1.25 mM
Method: (§2) The reactivation of Pal-inactivated urease was investigated by DTT application. The preincubation mixture consisted of 0.25 mg/mL HPU or JBU and 0.5 mM Pal in 20 mM HEPES buffer (pH 7.5). Then the mixture was further incubated with 1.25 mM DTT after 20 min. The enzymatic activity of urease was determined before and after the addition of DTT. After a while, aliquots were withdrawn and the urease residual activity was determined. The experiments were repeated three times.

jack bean urease (JBU) [5] = molecular target: T2, jack bean urease (JBU); experiment: biochemical; format: biochemical; settings: for activity at 500 µM: read-out: Urease activity, Fig 6B JBU, Pal 0.5 mM, DTT 1.25 mM
Method: as §2

jack bean urease (JBU) [6] = molecular target: T2, jack bean urease (JBU); experiment: Urease inhibition test (modified Berthelot method); format: biochemical
Method: HPU was prepared as previously described. The standard urease assay mixture included 150 mM urea in 20 mM HEPES buffer (pH 7.5). After addition of small aliquots of enzyme-containing solution of urease, the assay ran for 20 min. The enzymatic activity was evaluated spectrophotometrically by detecting the ammonia concentration at 595 nm according to the modified Berthelot (phenol-hypochlorite) method. Urease activity was estimated with JBU as a standard, the specific activity of HPU was determined to be 17.0 U/mg. One unit of urease activity was defined as 1 μmol of ammonia released per min at 25°C. The amount of protein was determined by commercial Bradford Protein Assay Kit with BSA as a standard. The amount of ammonia released was decided from a standard curve. The activity of uninhibited urease was defined as the control activity of 100%.
Reaction mixtures comprising 0.25 mg/mL HPU or JBU and different concentrations of Pal or AHA at the volume ratio of 1:1, were incubated at 37°C in 20 mM HEPES buffer (pH 7.5) in the absence of urea. The reactions were initiated by mixing the urease and the inhibitor. The preincubation mixture was withdrawn at 20 min and immediately transferred into the standard assay mixtures for urease residual activity determination. Inhibition rate (%) was calculated following the formula: I % = (1-activity with inhibitors/activity without inhibitors) × 100%. The IC50 was expressed as the concentration of inhibitor that decreased urease activity by 50% and calculated by plotting the percent of inhibition. The experiments were triply performed.

[7] = design: method as in PMID 23159469; settings: among berberine, coptisine, palmatine and epiberberine; in vitro and in vivo assays; cited from earlier work

COc1cc2c(cc1OC)-c1cc3ccc(OC)c(OC)c3c[n+]1CC2 [Pal, Palmatine]
remaining activity at 500 µM (H. pylori urease (HPU) [1]; 5 min incubation): 68.6% | remaining activity at 500 µM (H. pylori urease (HPU) [1]; 10 min incubation): 62.4% | remaining activity at 500 µM (H. pylori urease (HPU) [1]; 20 min incubation): 40.4% | remaining activity at 500 µM (H. pylori urease (HPU) [1]; 40 min incubation): 24.2% | remaining activity at 500 µM (jack bean urease (JBU) [2]; 5 min incubation): 30.8% | remaining activity at 500 µM (jack bean urease (JBU) [2]; 10 min incubation): 35.2% | remaining activity at 500 µM (jack bean urease (JBU) [2]; 20 min incubation): 34.3% | remaining activity at 500 µM (jack bean urease (JBU) [2]; 40 min incubation): 32.7% | Lineweaver-Burk plot raw value (reciprocal velocity) (H. pylori urease (HPU) [3]; Pal=0.25 mM, 1/urea 0.0333333): 3.3428 and 3.026 and 3.128 | Lineweaver-Burk plot raw value (reciprocal velocity) (H. pylori urease (HPU) [3]; Pal=0.25 mM, 1/urea 0.0666667): 3.79 and 3.489 and 3.584 | Lineweaver-Burk plot raw value (reciprocal velocity) (H. pylori urease (HPU) [3]; Pal=0.25 mM, 1/urea 0.133333): 4.108 and 3.898 and 3.84 | Lineweaver-Burk plot raw value (reciprocal velocity) (H. pylori urease (HPU) [3]; Pal=0.25 mM, 1/urea 0.266667): 4.796 and 4.692 and 4.666 | Lineweaver-Burk plot raw value (reciprocal velocity) (H. pylori urease (HPU) [3]; Pal=0.25 mM, 1/urea 0.533333): 6.008 and 5.574 and 5.658 | Lineweaver-Burk plot raw value (reciprocal velocity) (H. pylori urease (HPU) [3]; Pal=0.25 mM, 1/urea 1.06667): 7.22 and 6.84 and 7.11 | Lineweaver-Burk plot raw value (reciprocal velocity) (H. pylori urease (HPU) [3]; Pal=0.50 mM, 1/urea 0.0333333): 6.847 and 6.4288 and 8.753 | Lineweaver-Burk plot raw value (reciprocal velocity) (H. pylori urease (HPU) [3]; Pal=0.50 mM, 1/urea 0.0666667): 7.294 and 6.935 and 7.391 | Lineweaver-Burk plot raw value (reciprocal velocity) (H. pylori urease (HPU) [3]; Pal=0.50 mM, 1/urea 0.133333): 8.5 and 7.307 and 9.1701 | Lineweaver-Burk plot raw value (reciprocal velocity) (H. pylori urease (HPU) [3]; Pal=0.50 mM, 1/urea 0.266667): 11.3701 and 11.0558 | Lineweaver-Burk plot raw value (reciprocal velocity) (H. pylori urease (HPU) [3]; Pal=0.50 mM, 1/urea 0.533333): 13.369 and 12.3993 | Lineweaver-Burk plot raw value (reciprocal velocity) (H. pylori urease (HPU) [3]; Pal=0.50 mM, 1/urea 1.06667): 12.1433 and 18.315 and 12.9786 | Lineweaver-Burk plot raw value (reciprocal velocity) (H. pylori urease (HPU) [3]; Pal=1.00 mM, 1/urea 0.0333333): 10.7527 and 9.785 and 8.636 | Lineweaver-Burk plot raw value (reciprocal velocity) (H. pylori urease (HPU) [3]; Pal=1.00 mM, 1/urea 0.0666667): 12.8452 and 10.5708 and 10.7296 | Lineweaver-Burk plot raw value (reciprocal velocity) (H. pylori urease (HPU) [3]; Pal=1.00 mM, 1/urea 0.133333): 12.2775 and 12.7551 and 11.5942 | Lineweaver-Burk plot raw value (reciprocal velocity) (H. pylori urease (HPU) [3]; Pal=1.00 mM, 1/urea 0.266667): 16.5017 and 10.1061 and 12.6342 | Lineweaver-Burk plot raw value (reciprocal velocity) (H. pylori urease (HPU) [3]; Pal=1.00 mM, 1/urea 0.533333): 22.1239 and 12.1729 and 15.3022 | Lineweaver-Burk plot raw value (reciprocal velocity) (H. pylori urease (HPU) [3]; Pal=1.00 mM, 1/urea 1.06667): 26.3505 and 13.2013 and 19.861 | type of urease inhibition (H. pylori urease (HPU) [3]; HPU, Lineweaver-Burk): noncompetitive | activity at 500 µM (H. pylori urease (HPU) [4]; 5 min, incubation time 5 min): 54% | activity at 500 µM (H. pylori urease (HPU) [4]; 10 min, incubation time 10 min): 49.3% | activity at 500 µM (H. pylori urease (HPU) [4]; 0.25 h, incubation time 15 min): 49.3% | activity at 500 µM (H. pylori urease (HPU) [4]; 20 min, incubation time 20 min): 31.8% | reversibility of inhibition (H. pylori urease (HPU) [4]; HPU, DTT reactivation assay): reversible | activity at 500 µM (jack bean urease (JBU) [5]; 5 min, incubation time 5 min): 32.2% | activity at 500 µM (jack bean urease (JBU) [5]; 10 min, incubation time 10 min): 20.5% | activity at 500 µM (jack bean urease (JBU) [5]; 0.25 h, incubation time 15 min): 21.6% | activity at 500 µM (jack bean urease (JBU) [5]; 20 min, incubation time 20 min): 30.9% | reversibility of inhibition (jack bean urease (JBU) [5]; JBU, DTT reactivation assay): reversible | IC50 (jack bean urease (JBU) [6]): 30 µM | Residual activity (jack bean urease (JBU) [6]; Fig 2B JBU, Pal 0.0149062 mM, replicates): 54.1182% and 57.7693% | Residual activity (jack bean urease (JBU) [6]; Fig 2B JBU, Pal 0.0298125 mM, replicates): 50.3004% and 49.1799% | Residual activity (jack bean urease (JBU) [6]; Fig 2B JBU, Pal 0.059625 mM, replicates): 40.1092% and 41.6437% | Residual activity (jack bean urease (JBU) [6]; Fig 2B JBU, Pal 0.11925 mM, replicates): 37.8863% and 32.26% | Residual activity (jack bean urease (JBU) [6]; Fig 2B JBU, Pal 0.2385 mM, replicates): 38.5515% and 35.644% | Residual activity (jack bean urease (JBU) [6]; Fig 2B JBU, Pal 0.477 mM, replicates): 32.5751% and 31.4745% | Residual activity (jack bean urease (JBU) [6]; Fig 2B JBU, Pal 0.954 mM, replicates): 26.1588% and 18.0767% | Residual activity (jack bean urease (JBU) [6]; Fig 2D JBU, head prints Pal 0.00188802 mM, replicates): 95.2237% and 88.9105% | Residual activity (jack bean urease (JBU) [6]; Fig 2D JBU, head prints Pal 0.00377605 mM, replicates): 91.7722% and 82.8804% | Residual activity (jack bean urease (JBU) [6]; Fig 2D JBU, head prints Pal 0.00755209 mM, replicates): 77.2806% and 78.6217% | Residual activity (jack bean urease (JBU) [6]; Fig 2D JBU, head prints Pal 0.0151042 mM, replicates): 56.6996% and 59.4273% | Residual activity (jack bean urease (JBU) [6]; Fig 2D JBU, head prints Pal 0.0302084 mM, replicates): 37.3504% and 39.7719% | Residual activity (jack bean urease (JBU) [6]; Fig 2D JBU, head prints Pal 0.0604167 mM, replicates): 24.6949% and 22.6887% | Residual activity (jack bean urease (JBU) [6]; Fig 2D JBU, head prints Pal 0.120833 mM, replicates): 12.8879% and 13.7831% | Residual activity (jack bean urease (JBU) [6]; Fig 2D JBU, head prints Pal 0.241667 mM, replicates): 10.3312% and 12.3028% | remaining activity at 14.9062 µM (jack bean urease (JBU) [6]; read-out: Residual activity, Fig 2B JBU, Pal 0.0149062 mM, replicates): 55.1% | remaining activity at 29.8125 µM (jack bean urease (JBU) [6]; read-out: Residual activity, Fig 2B JBU, Pal 0.0298125 mM, replicates): 49% | remaining activity at 59.625 µM (jack bean urease (JBU) [6]; read-out: Residual activity, Fig 2B JBU, Pal 0.059625 mM, replicates): 45.6% | remaining activity at 119.25 µM (jack bean urease (JBU) [6]; read-out: Residual activity, Fig 2B JBU, Pal 0.11925 mM, replicates): 38.6% | remaining activity at 238.5 µM (jack bean urease (JBU) [6]; read-out: Residual activity, Fig 2B JBU, Pal 0.2385 mM, replicates): 36.2% | remaining activity at 477 µM (jack bean urease (JBU) [6]; read-out: Residual activity, Fig 2B JBU, Pal 0.477 mM, replicates): 25.7% | remaining activity at 954 µM (jack bean urease (JBU) [6]; read-out: Residual activity, Fig 2B JBU, Pal 0.954 mM, replicates): 27.1% | remaining activity at 1.88802 µM (jack bean urease (JBU) [6]; read-out: Residual activity, Fig 2D JBU, head prints Pal 0.00188802 mM, replicates): 94.8% | remaining activity at 3.77605 µM (jack bean urease (JBU) [6]; read-out: Residual activity, Fig 2D JBU, head prints Pal 0.00377605 mM, replicates): 88.2% | remaining activity at 7.55209 µM (jack bean urease (JBU) [6]; read-out: Residual activity, Fig 2D JBU, head prints Pal 0.00755209 mM, replicates): 75.2% | remaining activity at 15.1042 µM (jack bean urease (JBU) [6]; read-out: Residual activity, Fig 2D JBU, head prints Pal 0.0151042 mM, replicates): 55.4% | remaining activity at 30.2084 µM (jack bean urease (JBU) [6]; read-out: Residual activity, Fig 2D JBU, head prints Pal 0.0302084 mM, replicates): 36.9% | remaining activity at 60.4167 µM (jack bean urease (JBU) [6]; read-out: Residual activity, Fig 2D JBU, head prints Pal 0.0604167 mM, replicates): 25.4% | remaining activity at 120.833 µM (jack bean urease (JBU) [6]; read-out: Residual activity, Fig 2D JBU, head prints Pal 0.120833 mM, replicates): 15.7% | remaining activity at 241.667 µM (jack bean urease (JBU) [6]; read-out: Residual activity, Fig 2D JBU, head prints Pal 0.241667 mM, replicates): 11.3% | toxicity [7]: minimal
